Test results from PMC4002121, “Trimethylation of Histone H3 Lysine 36 by Human Methyltransferase PRDM9 Protein” (The Journal of Biological Chemistry, 2014).
“Also recorded” adds a separate entry of the source. Each block holds one compound with its values, some of them ahead of it.

What was measured:
PRDM9 [1] = details: cited from earlier work
From the text: Although PRDM9 H3K4 methyltransferase activity has been previously reported ([28]), to our knowledge its activity and substrate specificity have not been fully characterized. […] Our binding data also indicated tight H3K4 peptide binding (low micromolar). Previously, Hayashi et al. ([28]) reported that GST-PRDM9 specifically catalyzed met ...

PRDM9 [2] = biological target: T1, PRDM9 (Homo sapiens, UniProt Q9NQV7); assay: Isothermal titration calorimetry (ITC) binding to PRDM9; details: AdoMet 1 mM injected into 50 μM PRDM9, 25 °C, 20 mM Tris-HCl pH 8.5, one-binding site model
T1 construct: The wild-type PRDM9 gene (amino acids 195–385) was amplified by PCR; His tag (cleaved yes); made in house; host or cells: E. coli BL21(DE3)pRARE2-V2R
T1 sequence (Q9NQV7 195-385): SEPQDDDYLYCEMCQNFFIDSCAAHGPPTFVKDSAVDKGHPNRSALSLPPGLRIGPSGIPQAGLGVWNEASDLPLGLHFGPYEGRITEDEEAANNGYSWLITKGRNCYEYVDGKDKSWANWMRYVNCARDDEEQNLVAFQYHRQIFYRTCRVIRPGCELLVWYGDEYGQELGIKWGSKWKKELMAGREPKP
Protocol: Purified PRMD9 was dialyzed overnight in 20 mM Tris-HCl buffer, pH 8.5. […] ITC titrations were performed on a VP-ITC Micro Calorimeter from GE Healthcare at 25 °C by using 10-μl injections with a total of 25 injections. Data were fitted with a one-binding site model using Microcal Origin software.
FIGURE 7. […] Experiments were performed in duplicate.

PRDM9 [3] = biological target: T1, PRDM9; assay: PRDM9 substrate specificity, radioactivity-based histone peptide methylation assay; type: biochemical; details: 10 μM biotinylated peptide, 200 μM AdoMet, 1 nM PRDM9, 10 mM Tris-HCl pH 8.5, 0.01% Triton X-100, 10 mM DTT, 30 min, 23 °C; n = 4
Protocol: In this assay [^3H]AdoMet (PerkinElmer Life Sciences; catalog number NET155V250UC) was used as a methyl donor to methylate biotinylated histone peptide substrates. […] Samples were incubated for 30 min at 23 °C and the reaction was quenched by addition of 20 μl of 7.5 M guanidinium hydrochloride followed by addition of 160 μl of 20 mM Tris-HCl buffer, pH 8.0. Samples were added to wells of a streptavidin/scintillant-coated microplate (FlashPlate® PLUS; PerkinElmer Life Sciences). Biotinylated peptides would be captured in each well through their interaction with streptavidin, thereby bringing any incorporated [^3H]methyl in proximity of scintillant.
FIGURE 1. […] Data are presented as mean ± S.D. from four experiments.

HEK293 cells = assay: H3K4 and H3K36 methylation in HEK293 cells overexpressing PRDM9, immunoblotting; type: cell-based, human; details: normalized to total H3
Protocol: A FLAG-tagged control vector or FLAG-tagged PRDM9 construct were transfected into HEK293 cells using GeneJuice (Novagen). Transfected cells were serum-deprived prior to lysis in 50 mM Tris-HCl, 400 mM NaCl, 1 mM EDTA, 0.1% SDS, and 1% Triton X-100 supplemented with protease inhibitors. 30 μg of total cell lysate were processed for Western blotting and immunoblotted using specific antibodies to monitor the levels of H3K36me1 (Abcam, ab9048), H3K36me2 (Cell signaling Technology, 2901), H3K36me3 (Cell Signaling Technology, number 9763), H3K4me1 (Cell Signaling Technology, 9723), H3K4me2 (Abcam, ab32356), H3K4me3 (Cell Signaling Technology, number 9727S), and total H3 (Abcam, ab10799). The transfection efficiency of FLAG-PRDM9 was controlled by using an anti-FLAG antibody (FLAG M2 monoclonal, Sigma). Membrane bands were visualized using LiCor IRDye, 680RD anti-rabbit and 800CW anti-mouse secondary antibodies.
FIGURE 8. Trimethylation of H3K4 and H3K36 by PRDM9 in cells. […] Methylation levels of Lys-4 and Lys-36 were quantified and normalized to their respective total H3 levels. FLAG-PRDM9-transfected samples were normalized to samples transfected with FLAG Control vector. IB, immunoblot; CTL, control.

sterile mouse hybrids = details: via baculovirus; cited from earlier work
From the text: PRDM9 is a PR domain-containing protein with multiple zinc fingers that catalyze trimethylation of H3K4 ([28]). It is a meiosis-specific protein that has been reported to control activation of the short highly recombinogenic segments called recombination hot spots ([50]). The H3K4me3 mark is often associated with transcriptional activation ([51], [52]) and DNA repair ([53]). This methyl mark is also associated with recombination hot spot initiation in yeast and mice ([35], [36]) where double strand breaks occur prior to crossover events. However, H3K4me3 marks associated with hot spots are dis ...

PRDM9 [4] = biological target: T1, PRDM9; assay: Assay optimization: effect of pH, salt and additives on PRDM9 activity; type: biochemical
Protocol: Samples were incubated for 1 h at 23 °C and reactions were quenched by addition of 20 μl of 7.5 M guanidinium hydrochloride followed by addition of 160 μl of 20 mM Tris-HCl buffer, pH 8.0. Samples were added to wells of a streptavidin/scintillant-coated microplate (FlashPlate® PLUS: PerkinElmer Life Sciences).
FIGURE 3.

PRDM9 [5] = biological target: T1, PRDM9; assay: Screening PRDM9 against known histone methyltransferase inhibitor library; type: biochemical; details: 2.5 μM H3K36me2 peptide, 62 μM AdoMet, 1 nM PRDM9, 10 mM Tris-HCl pH 8.5, 10 mM DTT, 0.01% Triton X-100, 1% DMSO, 30 min, 23 °C; triplicate
Protocol: The Z-factor was determined to ensure the optimized assay was amenable to high-throughput screening in a 384-well format ([46]). […] PRDM9 was then screened against a small library of known histone methyltransferase inhibitors using H3K36me2 as substrate under optimized assay conditions. In this assay, 1 nM PRDM9 was incubated with 2.5 μM H3K36me2 peptide, 62 μM AdoMet in a reaction buffer (10 mM Tris-HCl, pH 8.5, 10 mM DTT, 0.01% Triton X-100) along with compounds ranging in concentrations from 0 to 100 μM, with a final DMSO concentration of 1%. Reactions were incubated at 23 °C for 30 min. The IC50 value was determined for suramin using SigmaPlot.
FIGURE 5. […] Experiments were performed in triplicate as described under “Experimental Procedures.”

[6] = H3-(1–25) substrate 10 μM, 40 μM AdoMet, 100 nM PRDM9, 10 mM Tris-HCl pH 8.5, 1 h, 23 °C, n = 4
[7] = H3-(1–25) substrate, 10 mM Tris-HCl pH 8.5

Compound: H3-(26–45): histone H3-(26–45) peptide on a peptide array
binding of PRDM9 to peptide on a peptide array (in words) (PRDM9 [1]): Binding

Kd (PRDM9 [2]): 18.6 µM
Compound: C[S+](CC[C@H](N)C(=O)[O-])C[C@H]1O[C@@H](n2cnc3c(N)ncnc32)[C@H](O)[C@@H]1O (stereo partly shown) [AdoMet, S-adenosylmethionine]

PRDM9 methyltransferase activity with substrate (in words) (PRDM9 [3]): No activity
Compound: K4A: K4A mutant of H3-(1–25) peptide

Compound: PRDM9: PR domain-containing protein 9, histone methyltransferase; FLAG-tagged in cells, residues 195–385 in vitro
mono- or dimethylation of H3K4 and H3K36 in cells (in words) (HEK293 cells; HEK293 cells overexpressing PRDM9): not mono- or dimethylation of either mark | trimethylation of H3K4 and H3K36 in cells (in words) (HEK293 cells; HEK293 cells transfected with FLAG-PRDM9 vs FLAG control vector): significant increase in trimethylation of H3K4 and H3K36; also recorded: significant increase in H3K36 trimethylation as well as H3K4 trimethylation | effect on sterile phenotype of mouse hybrids (in words) (sterile mouse hybrids): rescued the sterile phenotype

DMSO concentration of maximum PRDM9 activity (PRDM9 [4]; [7]): 0.16%
Compound: C[S+](C)[O-] [DMSO, dimethyl sulfoxide]
effect on PRDM9 activity (in words) (PRDM9 [4]; [6]): maintained high levels of activity at all concentrations of DMSO

PRDM9 methyltransferase activity with substrate (in words) (PRDM9 [3]): No activity
Compound: K4AK9A: K4AK9A mutant of H3-(1–25) peptide

IC50 (PRDM9 [5]): 4.1 ± 0.1 µM
Compound: Cc1ccc(C(=O)Nc2ccc(S(=O)(=O)O)c3cc(S(=O)(=O)O)cc(S(=O)(=O)O)c23)cc1NC(=O)c1cccc(NC(=O)Nc2cccc(C(=O)Nc3cc(C(=O)Nc4ccc(S(=O)(=O)O)c5cc(S(=O)(=O)O)cc(S(=O)(=O)O)c45)ccc3C)c2)c1 [suramin]

Triton X-100 concentration that dramatically improved signal to noise ratio (PRDM9 [4]; concentrations as low as, H3-(1–25) substrate, 10 mM Tris-HCl pH 8.5): ≥ 0.004%
Compound: Triton X-100
effect on PRDM9 activity (in words) (PRDM9 [4]; [6]): Higher concentrations of Triton X-100 up to 0.25% did not further increase the activity

Compound: H3K36A: H3-(21–44) peptide with Lys-36 mutated to alanine
PRDM9 methyltransferase activity with substrate (in words) (PRDM9 [3]): not when Lys-36 was trimethylated or mutated to alanine

Compound: [Cl-].[Na+] [NaCl]
NaCl concentration above which enzyme activity was abolished (PRDM9 [4]; [6]): above 125 mM | effect on PRDM9 activity (in words) (PRDM9 [4]; [6]): sharp decrease in activity with increasing NaCl concentrations

Compound: O=C(O)CCP(CCC(=O)O)CCC(=O)O [TCEP, Tris(2-carboxyethyl)phosphine]
effect on PRDM9 activity (in words) (PRDM9 [4]; [6]): sharp decrease in activity at increasing TCEP concentrations | concentration of maximal PRDM9 activity (reducing agent) (PRDM9 [4]; [7]): 0.6 mM

effect on PRDM9 activity (in words) (PRDM9 [4]; [6]): increase in enzyme activity | concentration of maximal PRDM9 activity (reducing agent) (PRDM9 [4]; [7]): 10 mM
Compound: O[C@@H](CS)[C@@H](O)CS [DTT]
